In BindingDB's records for doi:10.1021/jm0009437 (Institut Curie, 2000):

Molecular target: T1, Gag-Pol polyprotein [588-1027]/[588-1147] (Human immunodeficiency virus 1, UniProt P04585)
T1 construct: 588-1027; 588-1147
Test: HIV-1 RT Assay
Details: pH 8; 37 °C

Structure (SMILES)	IC50 [nM]
CCc1c(C)nc(O)c(N)c1C(=O)c1cc(C)cc(C)c1 [3-amino-4-[(3,5-dimethylphenyl)carbonyl]-5-ethyl-6-methyl-1,2-dihydropyridin-2-one]	100
CCc1c(C)nc(O)c(N)c1Cc1cc(C)cc(C)c1 [3-amino-4-[(3,5-dimethylphenyl)methyl]-5-ethyl-6-methyl-1,2-dihydropyridin-2-one]	100
CCc1c(C)[nH]c(=O)c([N+](=O)[O-])c1Sc1cc(C)cc(C)c1 [4-[(3,5-dimethylphenyl)sulfanyl]-5-ethyl-6-methyl-3-nitro-1,2-dihydropyridin-2-one]	30
